Reference: PMC10313052, “Filarial DAF-12 sense the host serum to resume iL3 development during infection” (PLOS Pathogens, 2023)
pEC50: −log10 of the molar value. “Also recorded” adds a separate entry of the source.

Key:
DimDAF-12 = DimDAF-12 (Dirofilaria immitis, UniProt A0A7D0JJL8); test: cell-based; assay type: cell-based
FXR = conditions: 10μM, 24 hours
HcoDAF-12 = target: T1, HcoDAF-12 (Haemonchus contortus, UniProt A0A7I4Z123); test: Cell-based transactivation assay, Gal4-HcoDAF-12_LBD luciferase reporter in NIH3T3 cells
T1 sequence (A0A7I4Z123 444-684): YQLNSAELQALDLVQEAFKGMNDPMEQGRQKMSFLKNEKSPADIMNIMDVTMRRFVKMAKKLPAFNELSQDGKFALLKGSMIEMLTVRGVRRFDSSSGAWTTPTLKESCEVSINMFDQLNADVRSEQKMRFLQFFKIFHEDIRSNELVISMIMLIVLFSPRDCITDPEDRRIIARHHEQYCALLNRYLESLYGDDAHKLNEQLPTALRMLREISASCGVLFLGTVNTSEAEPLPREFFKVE

CelDAF-12 = target: T2, CelDAF-12 (Caenorhabditis elegans, UniProt G5EFF5); test: cell-based; assay type: cell-based
T2 construct: fusing the LBD of the receptor of interest (Hco, Cel, Dim or BmaDAF12) and the DBD of GAL4; expressed in transfected cells; host or cells: NIH3T3
T2 sequence (G5EFF5 516-753 limits assumed): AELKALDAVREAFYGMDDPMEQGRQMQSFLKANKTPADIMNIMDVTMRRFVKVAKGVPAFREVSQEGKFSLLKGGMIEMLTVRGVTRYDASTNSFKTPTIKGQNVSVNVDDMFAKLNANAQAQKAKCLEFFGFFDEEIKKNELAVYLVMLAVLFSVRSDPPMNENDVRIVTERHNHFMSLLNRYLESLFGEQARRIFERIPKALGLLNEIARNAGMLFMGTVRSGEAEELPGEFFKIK

D. immitis iL3 = conditions: 50 µM
[1] = concentrations well above the relevant physiological values
[2] = NIH3T3, 24 h, technical triplicates, Fig 2, read-out: EC50 (logEC50 SE) (converted)

Sequence of DimDAF-12 (A0A7D0JJL8 587-828 limits assumed): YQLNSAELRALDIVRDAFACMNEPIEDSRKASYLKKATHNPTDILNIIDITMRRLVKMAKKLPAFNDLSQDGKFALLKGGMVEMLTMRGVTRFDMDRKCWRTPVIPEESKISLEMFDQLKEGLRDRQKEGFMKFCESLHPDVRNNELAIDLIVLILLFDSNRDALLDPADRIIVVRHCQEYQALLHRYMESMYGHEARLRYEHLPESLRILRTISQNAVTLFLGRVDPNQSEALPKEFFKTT

Molecule: 3β-hydroxy-5-cholestenoic acid
- Activation of DimDAF-12 by spiked charcoal-stripped mouse serum (DimDAF-12): failed to activate; also recorded: did not activate
- Activation of FXR (FXR): do not activate
- Activation of HcoDAF-12 in dose-response (HcoDAF-12; [1]): failed to activate
- Activation of CelDAF-12 in dose-response (CelDAF-12; [1]): failed to activate

Molecule: C[C@H](CCC[C@@H](C)[C@H]1CC[C@H]2[C@@H]3CCC4=CC(=O)CC[C@]4(C)[C@H]3CC[C@]12C)C(=O)O [(25R)-Δ4-DA]
- Activation of DimDAF-12 by spiked charcoal-stripped mouse serum (DimDAF-12): partially complement; also recorded: partially restores; also recorded: partial restoration

Molecule: CC(=O)N1CCN(c2ccc(OCC3COC(Cn4ccnc4)(c4ccc(Cl)cc4Cl)O3)cc2)CC1 (stereo not drawn) [ketoconazole]
- Survival of iL3 (D. immitis iL3): all iL3 died

Molecule: CC(CCCC(C)C1CCC2C3=CCC4CC(=O)CCC4(C)C3CCC21C)C(=O)O [Δ7-dafachronic acid, (25S)-Δ7-dafachronic acid]
- pEC50 (DimDAF-12): 9.00
- EC50 (HcoDAF-12; [2]): 12 nM
- EC50 (CelDAF-12; [2]): 11 nM
